According to PubChem BioAssay (NCI):
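Abbreviation: GI50, concentration required for 50% inhibition of growth. TGI marks complete inhibition of growth.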

Tests used:
Assay in all cases: NCI-60 cell line screen, 384-well format
[1] = tested on: SK-OV-3 ovarian
[2] = tested on: MALME-3M melanoma
[3] = tested on: BT-549 breast
[4] = tested on: HCT-15 colon
[5] = tested on: MDA-MB-435 melanoma
[6] = tested on: OVCAR-8 ovarian
[7] = tested on: A549 NSCLC
[8] = tested on: TK-10 renal
[9] = tested on: OVCAR-5 ovarian
[10] = tested on: NCI-H23 lung
[11] = tested on: NCI-H322M lung
[12] = tested on: MDA-MB-231 breast
[13] = tested on: T-47D breast
[14] = tested on: SR leukemia
[15] = tested on: SF-539 CNS
[16] = tested on: SN12C renal
[17] = tested on: DU-145 prostate
[18] = tested on: SK-MEL-5 melanoma
[19] = tested on: HOP-62 NSCLC
[20] = tested on: NCI-H460 NSCLC
[21] = tested on: HL-60(TB) leukemia
[22] = tested on: CCRF-CEM leukemia
[23] = tested on: MDA-MB-468 breast
[24] = tested on: HCT-116 colon
[25] = tested on: SNB-19 CNS
[26] = tested on: MCF7 breast
[27] = tested on: M14 melanoma
[28] = tested on: CAKI-1 renal
[29] = tested on: LOX IMVI melanoma

## Cc1c(-c2ccc(N3CCc4cccc(C(=O)Nc5nc6ccccc6s5)c4C3)nc2C(=O)O)cnn1CC12CC3CC(CC(C3)C1)C2
[1]
  TGI: 18.7 µM
[2]
  GI50: 11.6 µM
  TGI: 23.8 µM
[3]
  GI50: 9.65 µM
  TGI: 21.4 µM
[4]
  GI50: 4.28 µM
  TGI: 16.6 µM
[5]
  GI50: 2.47 µM
  TGI: 14 µM
[6]
  GI50: 11.8 µM
  TGI: 24.1 µM
[7]
  GI50: 8.57 µM
  TGI: 21 µM
[8]
  GI50: 2.48 µM
  TGI: 16 µM
[9]
  GI50: 0.351 µM
  TGI: 12.5 µM
[10]
  GI50: 8.42 µM
  TGI: 20.9 µM
[11]
  GI50: 7.97 µM
  TGI: 21 µM
[12]
  GI50: < 0.01 µM
  TGI: 0.186 µM
[13]
  GI50: 10.6 µM
  TGI: 22.4 µM
[14]
  GI50: 0.0191 µM
  TGI: 2.47 µM
[15]
  GI50: 14.6 µM
  TGI: 27.8 µM
[16]
  GI50: 13.5 µM
  TGI: 26.4 µM
[17]
  GI50: 16.7 µM
  TGI: 30.4 µM
[18]
  GI50: 12.8 µM
  TGI: 25.4 µM
[19]
  GI50: 15.3 µM
  TGI: 28.7 µM
[20]
  GI50: 17.1 µM
  TGI: 30.8 µM
[21]
  GI50: 2.53 µM
  TGI: 5.94 µM
[22]
  GI50: < 0.01 µM
  TGI: 0.0112 µM
[23]
  GI50: 1.7 µM
  TGI: 7.04 µM
[24]
  GI50: 3.88 µM
  TGI: 16.9 µM
[25]
  GI50: 10 µM
  TGI: 21.6 µM
[26]
  GI50: 14.2 µM
  TGI: 27.2 µM
[27]
  GI50: 16 µM
  TGI: 29.5 µM
[28]
  GI50: 13.8 µM
  TGI: 26.8 µM
[29]
  GI50: 6.46 µM
  TGI: 18.6 µM
